Laboratory results taken from patent US9708314B2, “Heterocyclic amide compound” (NISSAN CHEMICAL INDUSTRIES, LTD., priority 2013, dated 2017).

What was measured:
Assay type in all cases: in vivo
Apera spica-venti. = assay: Test Example 4: herbicidal effect by application to foliage (diluvial soil, plastic box); settings: Application herbicide amount 320 g/ha; foliage application
Outline: (§1)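 Read-out is a 0–5 visual grade of herbicidal ratio (5: ≥90%, almost withered; 0: ≤5%) taken three weeks after treatment. Compound was applied as a diluted emulsion to stem and leaf parts of 14-day greenhouse-grown plants (25° C. to 30° C.) at rates expressed as g/ha.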

Galium spurium = assay: as above; settings: Application herbicide amount 320 g/ha; foliage application
Outline: as §1

Digitaria ciliaris = assay: as above; settings: Application herbicide amount 320 g/ha; foliage application
Outline: as §1

Stellaria media = assay: as above; settings: Application herbicide amount 320 g/ha; foliage application
Outline: as §1

Lolium multiflorum Lam. = assay: as above; settings: Application herbicide amount 320 g/ha; foliage application
Outline: as §1

Setaria viridis = assay: as above; settings: Application herbicide amount 320 g/ha; foliage application
Outline: as §1

Alopecurus myosuroides = assay: as above; settings: Application herbicide amount 320 g/ha; foliage application
Outline: as §1

Chenopodium album = assay: as above; settings: Application herbicide amount 320 g/ha; foliage application
Outline: as §1

[1] = test system: Echinochloa crus-galli var. crus-galli; assay: as above; settings: Application herbicide amount 320 g/ha; foliage application
Outline: as §1

Avena fatua = assay: as above; settings: Application herbicide amount 320 g/ha; foliage application
Outline: as §1

Abutilon theophrasti = assay: as above; settings: Application herbicide amount 320 g/ha; foliage application
Outline: as §1

Veronica persica = assay: as above; settings: Application herbicide amount 320 g/ha; foliage application
Outline: as §1

Amaranthus retroflexus = assay: as above; settings: Application herbicide amount 320 g/ha; foliage application
Outline: as §1

[2] = test system: transplanted Oryza sativa; assay: Test Example 1: effect on crop, application before weed generation in submerged conditions; settings: Application herbicide amount 320 g/ha; Seventeenth Table
Outline: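 Submerged pot test: alluvial soil, 4 cm water, seeds sown mixed, 2.5-leaf rice transplanted; emulsion in water applied to surface day of sowing, dose g/ha; greenhouse 25–30° C.; 3 wk; 0–5 rating.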

[3] = test system: Beta vulgaris ssp. vulgaris; assay: Test Example 4: effect on crop by application to foliage (diluvial soil, plastic box); settings: Application herbicide amount 320 g/ha; foliage application
Outline: as §1

Zea mays = assay: as above; settings: Application herbicide amount 320 g/ha; foliage application
Outline: as §1

Triticum aestivum = assay: as above; settings: Application herbicide amount 320 g/ha; foliage application
Outline: as §1

Glycine max = assay: as above; settings: Application herbicide amount 320 g/ha; foliage application
Outline: as §1

Brassica campestris L. = assay: as above; settings: Application herbicide amount 320 g/ha; foliage application
Outline: as §1

| SMILES | L (Apera spica-venti.) herbicidal effect grade (Apera spica-venti.) | Q (Galium spurium) herbicidal effect grade (Galium spurium) | F (Digitaria ciliaris) herbicidal effect grade (Digitaria ciliaris) | P (Stellaria media) herbicidal effect grade (Stellaria media) | K (Lolium multiflorum Lam.) herbicidal effect grade (Lolium multiflorum Lam.) | G (Setaria viridis) herbicidal effect grade (Setaria viridis) | J (Alopecurus myosuroides) herbicidal effect grade (Alopecurus myosuroides) | O (Chenopodium album) herbicidal effect grade (Chenopodium album) | H (Echinochloa crus-galli var. crus-galli) herbicidal effect grade [1] | I (Avena fatua) herbicidal effect grade (Avena fatua) | M (Abutilon theophrasti) herbicidal effect grade (Abutilon theophrasti) | R (Veronica persica) herbicidal effect grade (Veronica persica) | N (Amaranthus retroflexus) herbicidal effect grade (Amaranthus retroflexus) | a: transplanted Oryza sativa (effect on crop grade) [2] | f (Beta vulgaris ssp. vulgaris) effect on crop grade [3] | c (Zea mays) effect on crop grade (Zea mays) | e (Triticum aestivum) effect on crop grade (Triticum aestivum) | d (Glycine max) effect on crop grade (Glycine max) | g (Brassica campestris L.) effect on crop grade (Brassica campestris L.) |
| --- | --- | --- | --- | --- | --- | --- | --- | --- | --- | --- | --- | --- | --- | --- | --- | --- | --- | --- | --- |
| CC(C)N(C)c1nnc2c(C(=O)Nc3nnco3)ccc(C(F)(F)F)n12 [1-122] | 4 (Herbicidal ratio of 70% or more and less than 90%) | 4 (Herbicidal ratio of 70% or more and less than 90%) | 5 (Herbicidal ratio of 90% or more (almost completely withered)) | 5 (Herbicidal ratio of 90% or more (almost completely withered)) | 3 (Herbicidal ratio of 40% or more and less than 70%) | 5 (Herbicidal ratio of 90% or more (almost completely withered)) | 3 (Herbicidal ratio of 40% or more and less than 70%) | 5 (Herbicidal ratio of 90% or more (almost completely withered)) | 5 (Herbicidal ratio of 90% or more (almost completely withered)) | 2 (Herbicidal ratio of 20% or more and less than 40%) | 5 (Herbicidal ratio of 90% or more (almost completely withered)) | 5 (Herbicidal ratio of 90% or more (almost completely withered)) | 5 (Herbicidal ratio of 90% or more (almost completely withered)) | 3 (Herbicidal ratio of 40% or more and less than 70%) | 5 (Herbicidal ratio of 90% or more (almost completely withered)) | 2 (Herbicidal ratio of 20% or more and less than 40%) | 2 (Herbicidal ratio of 20% or more and less than 40%) | 5 (Herbicidal ratio of 90% or more (almost completely withered)) | 5 (Herbicidal ratio of 90% or more (almost completely withered)) |
| CN(c1nnc2c(C(=O)Nc3nnco3)ccc(C(F)(F)F)n12)C1CCCCC1 [1-123] | 0 (Herbicidal ratio of 5% or less (almost no effect)) | 2 (Herbicidal ratio of 20% or more and less than 40%) | 4 (Herbicidal ratio of 70% or more and less than 90%) | 4 (Herbicidal ratio of 70% or more and less than 90%) | 0 (Herbicidal ratio of 5% or less (almost no effect)) | 3 (Herbicidal ratio of 40% or more and less than 70%) | 0 (Herbicidal ratio of 5% or less (almost no effect)) | 5 (Herbicidal ratio of 90% or more (almost completely withered)) | 4 (Herbicidal ratio of 70% or more and less than 90%) | 1 (Herbicidal ratio of 5% or more and less than 20%) | 4 (Herbicidal ratio of 70% or more and less than 90%) | 3 (Herbicidal ratio of 40% or more and less than 70%) | 4 (Herbicidal ratio of 70% or more and less than 90%) | 1 (Herbicidal ratio of 5% or more and less than 20%) | 4 (Herbicidal ratio of 70% or more and less than 90%) | 0 (Herbicidal ratio of 5% or less (almost no effect)) | 0 (Herbicidal ratio of 5% or less (almost no effect)) | 3 (Herbicidal ratio of 40% or more and less than 70%) | 3 (Herbicidal ratio of 40% or more and less than 70%) |
| Cc1nnc(NC(=O)c2ccc(C(F)(F)F)n3c(SCC(F)(F)F)nnc23)o1 [1-124] | 1 (Herbicidal ratio of 5% or more and less than 20%) | 2 (Herbicidal ratio of 20% or more and less than 40%) | 5 (Herbicidal ratio of 90% or more (almost completely withered)) | 3 (Herbicidal ratio of 40% or more and less than 70%) | 0 (Herbicidal ratio of 5% or less (almost no effect)) | 3 (Herbicidal ratio of 40% or more and less than 70%) | 0 (Herbicidal ratio of 5% or less (almost no effect)) | 5 (Herbicidal ratio of 90% or more (almost completely withered)) | 5 (Herbicidal ratio of 90% or more (almost completely withered)) | 2 (Herbicidal ratio of 20% or more and less than 40%) | 5 (Herbicidal ratio of 90% or more (almost completely withered)) | 2 (Herbicidal ratio of 20% or more and less than 40%) | 4 (Herbicidal ratio of 70% or more and less than 90%) | 0 (Herbicidal ratio of 5% or less (almost no effect)) | 3 (Herbicidal ratio of 40% or more and less than 70%) | 1 (Herbicidal ratio of 5% or more and less than 20%) | 0 (Herbicidal ratio of 5% or less (almost no effect)) | 3 (Herbicidal ratio of 40% or more and less than 70%) | 0 (Herbicidal ratio of 5% or less (almost no effect)) |
| CC(=O)CSc1nnc2c(C(=O)Nc3nnc(C)o3)ccc(C(F)(F)F)n12 [1-125] | 0 (Herbicidal ratio of 5% or less (almost no effect)) | 0 (Herbicidal ratio of 5% or less (almost no effect)) | 4 (Herbicidal ratio of 70% or more and less than 90%) | 4 (Herbicidal ratio of 70% or more and less than 90%) | 0 (Herbicidal ratio of 5% or less (almost no effect)) | 1 (Herbicidal ratio of 5% or more and less than 20%) | 0 (Herbicidal ratio of 5% or less (almost no effect)) | 5 (Herbicidal ratio of 90% or more (almost completely withered)) | 4 (Herbicidal ratio of 70% or more and less than 90%) | 1 (Herbicidal ratio of 5% or more and less than 20%) | 3 (Herbicidal ratio of 40% or more and less than 70%) | 0 (Herbicidal ratio of 5% or less (almost no effect)) | 3 (Herbicidal ratio of 40% or more and less than 70%) | 0 (Herbicidal ratio of 5% or less (almost no effect)) | 5 (Herbicidal ratio of 90% or more (almost completely withered)) | 2 (Herbicidal ratio of 20% or more and less than 40%) | 1 (Herbicidal ratio of 5% or more and less than 20%) | 3 (Herbicidal ratio of 40% or more and less than 70%) | 3 (Herbicidal ratio of 40% or more and less than 70%) |
| Cc1nnc(NC(=O)c2ccc(C(F)(F)F)n3c(SCC4OCCO4)nnc23)o1 [1-126] | 1 (Herbicidal ratio of 5% or more and less than 20%) | 1 (Herbicidal ratio of 5% or more and less than 20%) | 4 (Herbicidal ratio of 70% or more and less than 90%) | 5 (Herbicidal ratio of 90% or more (almost completely withered)) | 0 (Herbicidal ratio of 5% or less (almost no effect)) | 3 (Herbicidal ratio of 40% or more and less than 70%) | 0 (Herbicidal ratio of 5% or less (almost no effect)) | 5 (Herbicidal ratio of 90% or more (almost completely withered)) | 5 (Herbicidal ratio of 90% or more (almost completely withered)) | 0 (Herbicidal ratio of 5% or less (almost no effect)) | 3 (Herbicidal ratio of 40% or more and less than 70%) | 4 (Herbicidal ratio of 70% or more and less than 90%) | 3 (Herbicidal ratio of 40% or more and less than 70%) | 0 (Herbicidal ratio of 5% or less (almost no effect)) | 5 (Herbicidal ratio of 90% or more (almost completely withered)) | 1 (Herbicidal ratio of 5% or more and less than 20%) | 0 (Herbicidal ratio of 5% or less (almost no effect)) | 2 (Herbicidal ratio of 20% or more and less than 40%) | 3 (Herbicidal ratio of 40% or more and less than 70%) |
